Assay results taken from patent US10150793B2, “Antagonists of CB1 receptor” (INSERM (Institut National de la Santé et de la Recherche …, priority 2011, dated 2018).

Each compound was assayed on CHO cells (assay: Study of metabolism in vitro in CHO cells, steroids in culture medium by GC/MS). Conditions: CHO cells.
Method: Plasma, brain and culture medium levels of pregnenolone (5-Pregnen-3β-ol-20-one), allopregnanolone (3α-hydroxy-5α-pregnan-20-one), epiallopregnanolone (3β-hydroxy-5α-pregnan-ol-20-one), testosterone, and 5α dihydrotestosterone were determined by GC/MS according to the of estraction, purification and quantification protocol described previously (George O, et al., Biol Psychiatry. 2010 68: 956-63, Vallee M, et al., Anal Biochem. 2000, 287:153-66).
The CHO-K1 cell line (#CCL-61, ATCC-LGC, USA) derived as a subclone from the parental CHO cell line initiated from a biopsy of an adult Chinese hamster ovary was used. The CHO-K1 cells were seeded on 24-well plates (#353047, BD Biosciences, USA) to the appropriate concentration (25×10^4 cells/well) in fresh, antibiotic-free medium constituted by 90% DMEM-Glutamax; (#31966-21, Life technologies, USA) and 10% Fetal Bovine Serum (#10270-106, Life technologies, USA).
In this example the inventors further analyzed the metabolism of pregnenolone derivatives using an in vitro test in CHO cells. These cells derived from the ovary have all the enzymes needed to metabolize pregnenolone in down stream steroids.
For `CC[C@]1(C(C)=O)CCC2C3CC=C4C[C@@H](O)CC[C@]4(C)C3CC[C@@]21C` (stereo partly drawn) [Compound 32, 17α-Ethylpregnenolone], the “metabolism in downstream active steroids (Reduced metabolism / Metabolized)” value (“metabolism … (Reduced metabolism / Metabolized)” for short) was “Reduced metabolism”.
With `C=CC[C@]1(C(C)=O)CCC2C3CC=C4C[C@@H](O)CC[C@]4(C)C3CC[C@@]21C` (stereo partly drawn) [Compound 64, 17α-Allylpregnenolone] the “metabolism … (Reduced metabolism / Metabolized)” value was “Metabolized”.
`CO[C@H]1CC[C@@]2(C)C(=CCC3C2CC[C@@]2(C)C3CC[C@]2(Cc2ccccc2)C(C)=O)C1` (stereo partly drawn) [Compound 70, 17α-benzyl-3β-methoxypregnenolone] was tested, and the “metabolism … (Reduced metabolism / Metabolized)” value was “Reduced metabolism”.
In the case of `C=CC[C@]1(C(C)=O)CCC2C3CC=C4C[C@@H](OC)CC[C@]4(C)C3CC[C@@]21C` (stereo partly drawn) [Compound 69, 17α-Allyl-3β-methoxypregnenolone], the “metabolism … (Reduced metabolism / Metabolized)” value was “Reduced metabolism”.
In the case of `CC(=O)O[C@H]1CC[C@@]2(C)C(=CCC3C2CC[C@@]2(C)C3CC[C@@H]2C(C)=O)C1` (stereo partly drawn) [Compound 55, 3β-Acetoxypregnenolone], the “metabolism … (Reduced metabolism / Metabolized)” value was “Metabolized”.
In the case of `CC(=O)[C@]1(O)CCC2C3CC=C4C[C@@H](OC(=O)CCC(=O)O)CC[C@]4(C)C3CC[C@@]21C` (stereo partly drawn) [Compound 23, 17α-Hydroxypregnenolone hemisuccinate], the “metabolism … (Reduced metabolism / Metabolized)” value was “Metabolized”.
For `CC(=O)[C@H]1CCC2C3CC=C4CCCC[C@]4(C)C3CC[C@@]21C` (some centres unmarked) [Compound 37, 3-Dehydroxypregnenolone], the “metabolism … (Reduced metabolism / Metabolized)” value was “Metabolized”.
In the case of `CC(=O)[C@@]1(Cc2ccccc2)CCC2C3CCC4=CC(=O)CC[C@]4(C)C3CC[C@@]21C` (stereo partly drawn) [Compound 73, 17α-Benzylprogesterone], the “metabolism … (Reduced metabolism / Metabolized)” value was “Reduced metabolism”.
`CCOC1(C(C)=O)CCC2C3CC=C4C[C@@H](O)CC[C@]4(C)C3CC[C@@]21C` (some centres unmarked) [Compound 71, 17-Ethoxypregnenolone] was tested, and the “metabolism … (Reduced metabolism / Metabolized)” value was “Metabolized”.
For `CC(=O)[C@H]1CCC2C3CC[C@H]4C[C@@H](O)CC[C@]4(C)C3CC[C@@]21C` (stereo partly drawn) [Compound 11, 5α-Pregnan-3β-ol-20-one (Epiallopregnanolone)], the “metabolism … (Reduced metabolism / Metabolized)” value was “Metabolized”.
With `C[C@@H](O)[C@H]1CCC2C3CC=C4C[C@@H](O)CC[C@]4(C)C3CC[C@@]21C` (stereo partly drawn) [Compound 21, 5-Pregnen-3β,20β-diol] the “metabolism … (Reduced metabolism / Metabolized)” value was “Metabolized”.
`C[C@@H](O)[C@H]1CCC2C3CCC4=CC(=O)CC[C@]4(C)C3CC[C@@]21C` (stereo partly drawn) [Compound 19, 4-Pregnen-20β-ol-3-one] was tested, and the “metabolism … (Reduced metabolism / Metabolized)” value was “Metabolized”.
For `C[C@]12CC[C@H](O)CC1=CCC1C2CC[C@@]2(C)C1CC[C@@H]2C(=O)CO` (stereo partly drawn) [Compound 26, 5-Pregnen-3β,21-diol-20-one], the “metabolism … (Reduced metabolism / Metabolized)” value was “Metabolized”.
`CCO[C@H]1CC[C@@]2(C)C(=CCC3C2CC[C@@]2(C)C3CC[C@@H]2C(C)=O)C1` (stereo partly drawn) [Compound 34, 3β-Ethoxypregnenolone] was tested, and the “metabolism … (Reduced metabolism / Metabolized)” value was “Metabolized”.
`C[C@]12CCC3C(CC[C@H]4C[C@@H](O)CC[C@]34C)C1CC[C@@H]2C(=O)CO` (stereo partly drawn) [Compound 76, 5α-Pregnan 3β,21-diol-20-one] was tested, and the “metabolism … (Reduced metabolism / Metabolized)” value was “Metabolized”.
With `C[C@]12CCC3C(CC[C@@H]4C[C@@H](O)CC[C@]34C)C1CC[C@@H]2C(=O)CO` (stereo partly drawn) [Compound 75, 5α-Pregnan-3α,21-diol-20-one] the “metabolism … (Reduced metabolism / Metabolized)” value was “Metabolized”.
With `C[C@]12CC[C@H](O)CC1=CCC1C2CC[C@]2(C)C(=O)CCC12` (stereo partly drawn) [Compound 50, 5-Androsten-3β-ol-17-one (DHEA), reference compound] the “metabolism … (Reduced metabolism / Metabolized)” value was “Metabolized”.
For `CC(=O)[C@]1(O)CCC2C3CC=C4C[C@@H](O)CC[C@]4(C)C3CC[C@@]21C` (stereo partly drawn) [Compound 22, 17α-Hydroxypregnenolone], the “metabolism … (Reduced metabolism / Metabolized)” value was “Metabolized”.
In the case of `CO[C@H]1CC[C@@]2(C)C(=CCC3C2CC[C@@]2(C)C3CC[C@@H]2C(C)=O)C1` (stereo partly drawn) [Compound 33, 3β-Methoxypregnenolone], the “metabolism … (Reduced metabolism / Metabolized)” value was “Metabolized”.
For `CNC(C)[C@H]1CC[C@H]2[C@@H]3CC=C4C[C@@H](O)CC[C@]4(C)[C@H]3CC[C@]12C` (stereo partly drawn) [Compound 67, 20-Methylamino-5-pregnen-3β-ol], the “metabolism … (Reduced metabolism / Metabolized)” value was “Reduced metabolism”.
With `C[C@]12CC[C@H]3[C@@H](CCC4=CC(=O)CC[C@@]43C)[C@@H]1CC[C@@H]2C(=O)CO` [Compound 52, 4-Pregnen-21-ol-3,20-dione] the “metabolism … (Reduced metabolism / Metabolized)” value was “Metabolized”.
For `C[C@@H](O)[C@H]1CCC2C3CCC4=C[C@@H](O)CC[C@]4(C)C3CC[C@@]21C` (stereo partly drawn) [Compound 13, 4-Pregnen-3β,20β-diol], the “metabolism … (Reduced metabolism / Metabolized)” value was “Metabolized”.
`CC(=O)[C@@]1(Cc2ccccc2)CCC2C3CC=C4C[C@@H](F)CC[C@]4(C)C3CC[C@@]21C` (stereo partly drawn) [Compound 74, 17α-Benzyl-3β-fluoropregnenolone] was tested, and the “metabolism … (Reduced metabolism / Metabolized)” value was “Reduced metabolism”.
`C[C@@H](O)[C@H]1CCC2C3CC[C@H]4C[C@@H](O)CC[C@]4(C)C3CC[C@@]21C` (stereo partly drawn) [Compound 8, 5α-Pregnan-3β,20α-diol] was tested, and the “metabolism … (Reduced metabolism / Metabolized)” value was “Metabolized”.
With `CC(=O)[C@@]1(Cc2ccccc2)CCC2C3CC=C4C[C@@H](OCc5ccccc5)CC[C@]4(C)C3CC[C@@]21C` (stereo partly drawn) [Compound 63, 17α-Benzyl-3β-benzyloxypregnenolone] the “metabolism … (Reduced metabolism / Metabolized)” value was “Reduced metabolism”.
`C[C@@H](O)[C@@]1(O)CCC2C3CCC4=CC(=O)CC[C@]4(C)C3CC[C@@]21C` (stereo partly drawn) [Compound 15, 4-Pregnen-17α,20β-diol-3-one] was tested, and the “metabolism … (Reduced metabolism / Metabolized)” value was “Metabolized”.
In the case of `CC(=O)[C@H]1CCC2C3CCC4=C[C@@H](O)CC[C@]4(C)C3CC[C@@]21C` (stereo partly drawn) [Compound 17, 4-Pregnen-3β-ol-20-one], the “metabolism … (Reduced metabolism / Metabolized)” value was “Metabolized”.
`CC(=O)[C@@]1(C)CCC2C3CC=C4C[C@@H](OCc5ccccc5)CC[C@]4(C)C3CC[C@@]21C` (stereo partly drawn) [Compound 42, 3β-Benzyloxy-17α-methylpregnenolone] was tested, and the “metabolism … (Reduced metabolism / Metabolized)” value was “Reduced metabolism”.
`CCC1=CC[C@H]2[C@@H]3CC=C4C[C@@H](O)CC[C@]4(C)[C@H]3CC[C@]12C` [Compound 6, 5,16-Pregnadien-3β-ol] was tested, and the “metabolism … (Reduced metabolism / Metabolized)” value was “Metabolized”.
In the case of `CC(=O)C1CCC2C3CC[C@H]4C[C@@H](OC(=O)CCC(=O)O)CC[C@]4(C)C3CC[C@]12C` (stereo partly drawn) [Compound 10, 5α-Pregnan-3α-ol-20-one hemisuccinate (Allopregnanolone hemisuccinate)], the “metabolism … (Reduced metabolism / Metabolized)” value was “Metabolized”.
In the case of `CC(=O)[C@H]1CC[C@H]2[C@@H]3CC=C4C[C@@H](OS(=O)(=O)[O-])CC[C@]4(C)[C@H]3CC[C@]12C.[Na+]` [Compound 53, Pregnenolone sulfate sodium], the “metabolism … (Reduced metabolism / Metabolized)” value was “Metabolized”.
With `CC(=O)C1=CCC2C3CC=C4C[C@@H](O)CC[C@]4(C)C3CC[C@]12C` (stereo partly drawn) [Compound 7, 5,16-Pregnadien-3β-ol-20-one] the “metabolism … (Reduced metabolism / Metabolized)” value was “Metabolized”.
In the case of `CC(=O)C1CCC2C3CC=C4C[C@@H](N)CC[C@]4(C)C3CC[C@]12C` (stereo partly drawn) [Compound 66, 3β-Aminopregnenolone], the “metabolism … (Reduced metabolism / Metabolized)” value was “Metabolized”.
For `CC(O)C1=CC[C@H]2[C@@H]3CC=C4C[C@@H](O)CC[C@]4(C)[C@H]3CC[C@]12C` (stereo partly drawn) [Compound 38, 5,16-Pregnadien-3β,20-diol], the “metabolism … (Reduced metabolism / Metabolized)” value was “Metabolized”.

What follows are compounds tested on TNF-α (assay: Increase in plasma TNF-alpha induced by LPS). Conditions: Mus musculus; mice; compounds 6 mg/kg 15 min before LPS.
Assay type: in vivo, mice
Method: Trunk blood was collected and centrifuged at 3000 rpm for 15 min at 4° C. Plasma was stored at −80° C. until measurement of TNFα was carried out. Plasma TNFα levels were assessed using an ELISA kit, following the manufacturer's instructions (Fisher Scientific, Catalog #E6473C).
In this example the inventors further analyzed the ability of pregnenolone to inhibit the effects of CB1 activation in the context of inflammation and fibrosis. […] TNF-alpha is one of the cellular responses to inflammatory stimuli more involved in promoting fibrosis.
Other pregnenolone derivatives (Table 4) for which the metabolism in downstream active steroids was reduced were tested for their ability to inhibit: 1. effects of the THC-induced cannabinoid tetrade (decrease in body temperature and in locomotor activity, (THC 10 mg/kg, compounds 6 mg/kg 15-30 min before THC) that is recognized as a sound method to evaluate the activation of the CB1 receptor; 2. THC-induced increase in food intake a typical effect of CB1 activation (THC between 0.5 and 1 mg/kg, compounds between 2 and 4 mg/kg 30 min before THC); 3. the increase in TNFalpha induced by LPS, another effects typical of CB1 […] (compounds 6 mg/kg 15 min before LPS). For each compound and each test independent groups of animals were used (at least n=6 per compound/per test).
For `CC[C@]1(C(C)=O)CCC2C3CC=C4C[C@@H](O)CC[C@]4(C)C3CC[C@@]21C` (stereo partly drawn) [Compound 32, 17α-Ethylpregnenolone], the inhibition in vivo at 6 mg/kg was 64%.

These compounds were tested against CB1 receptor (Mus musculus, UniProt P47746) (assay: THC-induced cannabinoid tetrad (body temperature, locomotor activity, catalepsy, analgesia)). Conditions: AMG 50 mg/kg ip 30 min before THC.
Sequence of CB1 receptor (P47746 whole entry): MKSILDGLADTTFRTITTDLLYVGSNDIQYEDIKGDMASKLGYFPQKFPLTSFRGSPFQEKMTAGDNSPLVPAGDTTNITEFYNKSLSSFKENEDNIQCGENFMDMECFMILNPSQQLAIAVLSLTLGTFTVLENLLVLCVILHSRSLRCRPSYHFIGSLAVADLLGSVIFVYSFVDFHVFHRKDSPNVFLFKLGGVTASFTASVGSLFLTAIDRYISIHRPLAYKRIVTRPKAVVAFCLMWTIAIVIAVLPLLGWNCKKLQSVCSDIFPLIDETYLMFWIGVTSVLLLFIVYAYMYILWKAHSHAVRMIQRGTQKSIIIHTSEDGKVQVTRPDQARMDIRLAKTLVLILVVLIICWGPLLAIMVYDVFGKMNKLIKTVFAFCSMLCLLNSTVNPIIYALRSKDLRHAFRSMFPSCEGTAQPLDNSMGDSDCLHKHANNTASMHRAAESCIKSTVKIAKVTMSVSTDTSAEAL
Assay type: in vivo, mice
Parameters: tissue Charles River Laboratories (France) (animals); host or cells: living mice, whole animal
With `CCC1(c2ccc(N)cc2)CCC(=O)NC1=O` (centres unmarked) [AMG, aminoglutethimide, reference compound] the “effect on behavioural effects of THC (tetrad)” value was “strongly increased all the behavioural effect of THC”.

Same assay, conditions: mice; THC 10 mg/kg; compounds 6 mg/kg 15-30 min before THC
For `CC[C@]1(C(C)=O)CCC2C3CC=C4C[C@@H](O)CC[C@]4(C)C3CC[C@@]21C` (stereo partly drawn) [Compound 32, 17α-Ethylpregnenolone], the “% Inhibition temperature decrease” value was 12%, P > 0.25 and the “% increase in motor activity” value was −2%, P > 0.25.
With `CO[C@H]1CC[C@@]2(C)C(=CCC3C2CC[C@@]2(C)C3CC[C@]2(Cc2ccccc2)C(C)=O)C1` (stereo partly drawn) [Compound 70, 17α-benzyl-3β-methoxypregnenolone] the “% Inhibition temperature decrease” value was 8%, P > 0.49 and the “% increase in motor activity” value was 2%, P > 0.48.
`C=CC[C@]1(C(C)=O)CCC2C3CC=C4C[C@@H](OC)CC[C@]4(C)C3CC[C@@]21C` (stereo partly drawn) [Compound 69, 17α-Allyl-3β-methoxypregnenolone] was tested, and the “% Inhibition temperature decrease” value was 4%, P > 0.39 and the “% increase in motor activity” value was −49%, P > 0.1.
`CNC(C)[C@H]1CC[C@H]2[C@@H]3CC=C4C[C@@H](O)CC[C@]4(C)[C@H]3CC[C@]12C` (stereo partly drawn) [Compound 67, 20-Methylamino-5-pregnen-3β-ol] was tested, and the “% Inhibition temperature decrease” value was 28%, P < 0.05 and the “% increase in motor activity” value was −20%, P > 0.35.
